Measurements reported in patent US20110152316A1, “3,4-SUBSTITUTED PIPERIDINE DERIVATIVES AS RENIN INHIBITORS” (priority 2008, published 2011).

How the values were obtained:
[1] = biological target: T1, recombinant renin in human plasma (Homo sapiens, UniProt P00797); test: Inhibition of renin in human plasma; type: biochemical; settings: human EDTA plasma, 37° C., 1 hour
T1 construct: purchased Proteos
T1 sequence (P00797 67-406): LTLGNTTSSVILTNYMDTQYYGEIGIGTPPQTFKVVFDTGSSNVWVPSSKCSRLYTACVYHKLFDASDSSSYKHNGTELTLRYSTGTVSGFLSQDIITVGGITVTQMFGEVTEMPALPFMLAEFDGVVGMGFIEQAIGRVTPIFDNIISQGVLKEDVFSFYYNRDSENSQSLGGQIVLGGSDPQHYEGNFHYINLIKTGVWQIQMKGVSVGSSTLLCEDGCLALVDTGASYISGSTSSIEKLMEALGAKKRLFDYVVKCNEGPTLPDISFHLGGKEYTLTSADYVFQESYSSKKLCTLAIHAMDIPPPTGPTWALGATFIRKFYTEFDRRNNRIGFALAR
Protocol: Human EDTA-collected plasma is rapidly thawed in warm water and centrifuged at 2900 g for 15 minutes at 4° C. The supernatant is collected and recombinant renin (Proteos) is added at a final concentration of 1 nM. The plasma is transferred to a Costar black 384 well plate (#3573). Renin inhibitors are added from a 17.5 fold concentrated DMSO solution and pre-incubated at 37° C. for 10 minutes. The internally-quench fluorescent peptide QXL520™-Lys-His-Pro-Phe-His-Leu-Val-Ile-His-Lys (5-FAM) (Anaspec), SEQ ID NO: 2, is diluted in 3M Tris pH 7.2, 200 mM EDTA and added to the plasma. The final concentrations are: 6 μM substrate, 342 mM Tris, 23 mM EDTA. The plate is incubated at 37° C. for 1 hour. The plate is read in a SpectraMax Gemini EM reader set at an excitation wavelength of 490 nm and an emission wavelength of 520 nm at times 0 and 1 hour. Background fluorescence at t=0 is subtracted from the measurement at t=1 hour. Inhibitory activity of the compounds is expressed as IC50.

Human recombinant renin = biological target: T2, Human recombinant renin (Homo sapiens, UniProt P00797); test: Inhibition of human recombinant renin (buffer); type: biochemical; settings: 50 mM MOPS pH 7.4, 37° C., 3 hours
T2 construct: purchased Proteos
T2 sequence (P00797 67-406): T1 sequence (P00797 67-406)
Protocol: Human recombinant renin (Proteos) in 50 mM MOPS pH 7.4, 100 mM NaCl, 0.002% Tween 20 at a final concentration of […] is incubated with inhibitors from a 50 fold concentrated DMSO solution and 6 μM of an internally-quench fluorescent peptide: DNP-Lys-His-Pro-Phe-His-Leu-Val-Ile-His-D,L-Amp (SEQ ID NO: 1); Paschalidou K. et al., Biochem J., 2004, 382, 1031). The reactions take place in a Costar 384 well black plate (#3573) at 37° C. for 3 hours. Fluorescence is measured at times 0 and 3 hours with a SpectraMax Gemini EM reader set at an excitation wavelength of 328 nm and at an emission wavelength of 388 nm. Background fluorescence at t=0 is subtracted from the measurement at t=3 hours. Inhibitory activity of the compounds is expressed as IC 50.

SMILES | IC50 [1] [nM] | IC50 (Human recombinant renin) [nM]
COCCCc1cc(CN(C(=O)[C@@H]2CNCC[C@H]2c2cc(=O)n(C)c3cc(Cl)ccc23)C2CC2)cc(OCCOC)c1 (relative stereo) [Example 2, trans-4-(7-Chloro-1-methyl-2-oxo-1,2-dihydro-4-quinolinyl)-N-cyclopropyl-N-({3-{[2-(methyloxy)ethyl]oxy}-5-[3-(methyloxy)propyl]phenyl}methyl)-3-piperidinecarboxamide] | 7.6 | 2.2
COCCCc1cc(CN(C(=O)[C@@H]2CNCC[C@H]2c2cc(=O)n(C)c3ccccc23)C2CC2)cc(OCCOC)c1 (relative stereo) [Example 1, trans-N-Cyclopropyl-4-(1-methyl-2-oxo-1,2-dihydro-4-quinolinyl)-N-({3-{[2-(methyloxy)ethyl]oxy}-5-[3-(methyloxy)propyl]phenyl}methyl)-3-piperidinecarboxamide] | 39 | 13
